Measurements from patent publication US8088916B2, “Hyaluronic acid-methotrexate conjugate” (priority 2004, dated 2012).

Columns and labels:
[1] = Measurement of viscoelasticity; assay type: physicochemical; details: sterile solutions, 37° C., cone 4 cm, CSL500 stress-controlled rheometer; FIG. 1
Procedure: The viscoelasticities of the sterile solutions of hyaluronic acids (molecular weights: 1,900,000 and 800,000) and the conjugates of Examples 2-1, 2-8, 2-18, 2-27, and 2-29 were measured at 37° C. using a cone 4 cm in diameter by a CSL500 stress-controlled rheometer (from Carri-Med Ltd.).

[2] = tested on: human synovial cells (HFLS); test: Anti-proliferative effect on synovial cells stimulated by TNF-α ([3H]-deoxyuridine uptake); assay type: cell-based; details: TNF-α 10 ng/mL, 5 days culture, concentration calculated as MTX from conjugation rate
Source text: An effect of the HA-MTX conjugates of the invention on cell proliferation induced by TNF-α stimulation was examined using human synovial cells (HFLS). The main lesion in rheumatoid arthritis (RA) occurs in the synovial tissue, and, as one of the features, it is known that synovial cells abnormally proliferate to form a granulation tissue (pannus) and thereby destroy the cartilage and bone of the joint. Secondary synovitis is also observed in osteoarthritis (OA). […] Thus, a compound inhibiting the proliferation of synovial cells stimulated by the inflammatory cytokine TNF-α suppresses the progression of the pathologic conditions of RA and OA and becomes a therapeutic drug therefor. The sterile aqueous solutions of the HA-MTX conjugates in Example 2 (Table 2) were used as test substances. HFLS (CA40405, Lot Nos. 1413 and 1493) was purchased from Cell Applications Ins. for use. HFLS was seeded at 5,000 cells/well on a 96-well plate (Falcon) and cultured for 3 hours in Iscove's modified Dulbecco's medium (IMDM) containing 5% FBS and 1× Antibiotic-Antimycotic (GIBOC). After cellular attachment, TNF-α (final concentration: 10 ng/mL) and each HA-MTX conjugate at each concentration was added, followed by cultivation for 5 days. Two days before the end of culture, was added 37 kBq/well of [^3H]-deoxyuridine in the cells (MORAVEK), followed by determining the uptake quantity (radioactivity) of [^3H]-deoxyuridine using a scintillation counter. Cells were recovered by unsticking them with 0.05% trypsin-0.2% EDTA. Radioactivity determined in each of the experiments with each test substance was calculated as a relative value (% of control), using, as control, radioactivity in the group of cells cultured without adding any test substance. […] GraphPad Prism 3.02).

[3] = tested on: mBSA-induced monoarthritis model; test: Suppressive effect on knee joint swelling in mBSA-induced monoarthritis model; assay type: in vivo, rat; details: AUC of knee joint swelling to two weeks after induction; control = HA-treated group; 50 μL into right knee joint 7 and 1 day before and 7 days after induction
Procedure: An in vivo synovitis-suppressing effect of each HA-MTX conjugate of the invention was assessed on the basis of a suppressive effect on knee joint swelling in a methylated bovine serum albumin (mBSA)-induced monoarthritis model of rat. Since the mBSA-induced arthritis model employed in this experimental example is widely used as an antigen-induced arthritis model, and known to develop synovitis (Sven E. Andersson, et al., The Journal of Rheumatology (1998) 25: 9, 1772-7), the in vivo knee joint swelling-suppressing effect observed in this model conceivably represents a synovitis-suppressing effect. The compounds of the invention suppressing synovitis in vivo are useful as therapeutic drugs for joint diseases accompanied by synovitis (RA, OA, and the like).
The animal used was the LEW/Crj rat (6-week old male, from Charles River Laboratories Japan, Inc.). Into the flank of the rat was subcutaneously injected 0.5 mL of an emulsion prepared from a 2 mg/mL mBSA (Calbiochem) aqueous solution and an equal amount of Freund's complete adjuvant (Difco) 21 and 14 days before inducing arthritis. The arthritis was induced by administering 50 μL of a 2 mg/mL mBSA aqueous solution into the right knee joint. The left knee joint was untreated, and served as control in each individual. Each test substance (sterile aqueous solution) and the control drug hyaluronic acid were each administered into the right knee joint in an amount of 50 μL 7 and 1 day before and 7 days after inducing arthritis.
The determination of knee joint swelling involved measuring the widths of both knee joints with calipers to define the left/right difference (right knee diameter-left knee diameter) as a knee joint swelling. The width of each knee joint was measured at a frequency of twice a week from immediately before inducing arthritis to two weeks later to calculate AUC (an abbreviation for Area Under the Curve; here, it means an area under a curve with time for the joint swelling) from the transition thereof with time. At each measurement, the mean and standard deviation of AUC were calculated to perform an unpaired t-test between each test substance-treated group and the HA-treated group, and significant difference was judged to be present if the probability level is less than 5%. Statistical analysis used SAS version 6.12 (SAS Institute Japan). In addition, the AUC of each test substance was calculated, using that in the HA-treated group as a control, as a relative value (% of control) therefor.
To verify the usefulness of the HA-MTX conjugate of the invention, the suppressive effect on joint swelling was compared, in accordance with the method of Example 3, among: 1) a group treated with the HA-MTX conjugate (sterile aqueous solution) prepared in Example 2-2; 2) a group treated with a solution containing MTX of an amount equal to that of MTX contained in the HA-MTX conjugate; and 3) a group of treated with a mixture (HA+MTX) of MTX and hyaluronic acid (HA) of amounts equal to those contained in the conjugate. The transition of knee joint swelling with time in this test is shown in FIG. 2, and the AUC thereof in FIG. 3.

[4] = tested on: collagenase-induced arthritis (OA) model; test: Suppressive effect on knee joint swelling in collagenase-induced arthritis (OA) model; assay type: in vivo, rat; details: AUC of knee joint swelling to 20 days after induction; 50 μL into right knee joint once a week from 7 and 1 day before induction; compared with HA-treated group
Procedure: An in vivo synovitis-suppressing effect of the HA-MTX conjugate was evaluated in collagenase-induced OA model rats. The collagenase-induced OA model is a model in which inflammation has been induced within the knee joint by injecting collagenase into the knee joint to directly digest collagen in cartilage tissue. […] Therefore, the compound of the invention suppressing inflammation in the model and inhibiting cartilage degeneration therein will be useful as a therapeutic drug for OA.
The animal used was the SD/Crj rat (6-week old male, from Charles River Laboratories Japan, Inc.). Into the articular cavity of the right knee was administered 50 μL of 1.5% collagenase (Sigma) solution to induce arthritis. The left knee joint was untreated to use as a control in each individual. Each test substance was administered into the right knee joint in an amount of 50 μL once a week from 7 and 1 day before inducing arthritis.
The determination of knee joint swelling involved measuring the widths of both knee joints with calipers to determine the left/right difference (right knee diameter-left knee diameter), which was defined as a knee joint swelling. The width of each knee joint was measured on the order of twice a week from immediately before inducing arthritis to 20 days later to calculate AUC from a graph showing the transition thereof with time. At each measurement, the mean and standard error of the mean of AUC were calculated to perform an unpaired t-test between each test substance-treated group and the HA-treated group, and significant difference was judged to be present if the probability level is less than 5%.

[5] = tested on: arthritis model in which pathosis occurs in the knee joint; test: Intra-articular administration to an arthritis model in which pathosis occurs in the knee joint; assay type: in vivo; details: intra-articularly administered; summary statement

Substance	viscoelasticity [1]	IC50 [2] [nM]	AUC (% of control) (mean ± SEM) [3]	AUC (% of control) (mean ± SEM) [4]	alleviating effect on synovitis [5]
MTX-α-Ile-NHC10H20O3NH-HA [Example 2-27]	viscoelasticities intermediate between those of the hyaluronic acids having molecular weights of 800,000 and 1,900,000	3100	75.1 ± 6.8 % of control	82.6 ± 5.2 % of control	–
MTX-α-PheGly-NHC10H20O3NH-HA [Example 2-18]	viscoelasticities intermediate between those of the hyaluronic acids having molecular weights of 800,000 and 1,900,000	9200	61.5 ± 4.7 % of control	65.9 ± 3.5 % of control	–
MTX-α-PhePhe-NHC2H4NH-HA [Example 2-1]	viscoelasticities intermediate between those of the hyaluronic acids having molecular weights of 800,000 and 1,900,000	360	48.5 ± 5.3 % of control	45.7 ± 3.9 % of control	–
MTX-α-PhePhe-NHC10H2OO3NH-HA [Example 2-8]	viscoelasticities intermediate between those of the hyaluronic acids having molecular weights of 800,000 and 1,900,000	840	54.9 ± 7.2 % of control	54.8 ± 5.9 % of control	–
hyaluronic acid [HA]	–	–	–	–	not seen with HA
